Test results taken from patent publication US20150034084A1, “[…] NITRIC OXIDE FOR TREATING RESPIRATORY DISEASES” (Advanced Inhalation Therapies (AIT) Ltd., priority 2012, published 2015).

How the values were obtained:
[1] = Phase I open label safety study of intermittent 160 ppm gNO inhalation: adverse events, vital signs, oxygenation; format: in vivo, human
Description: 10 healthy adult volunteer subjects (5 males, 5 females), aged 20 to 62 years, were enrolled in the study after screening their medical history, a physical examination, pulmonary function tests and blood values. Exclusion criteria included individuals less than 19 years of age, pregnant females and unwilling to practice birth control during the study, diagnosed with pulmonary disease, epistaxis, hemoptysis, methemoglobinemia, organ transplant recipient or receiving antibiotic therapy.
After obtaining informed consent, treatment was initiated within 5 days of enrollment. Subjects were housed in a hospital ward and received 160 ppm gNO for 30 minutes every four hours (Q4h), five times a day, for five consecutive days by inhalation. Subjects returned for follow-up evaluations 3, 7 and 21 days after the final gNO administration. Subject safety was determined by monitoring vital signs, methemoglobin levels, lung function, blood chemistry, hematology, prothrombin time, inflammatory cytokine/chemokines levels and endothelial activation. These parameters were compared to baseline and at various time-points during and after gNO administration.
Subjects were administered gNO through a modified disposable mouthpiece to maximize mixing. Inspiration was spontaneously initiated by the subject from a conventional intermittent positive pressure breathing respirator (Mark-7, Carefusion, USA) in fixed flow mode delivering 48 liters per minute (LPM). Flows of gas were verified with a calibrated mass flow meter (TSI, USA). Gaseous nitric oxide (gNO, obtained at INOmax, Ikaria, USA) at a concentration of 800 ppm delivered at a flow of 12 LPM was titrated into a distal delivery port on the mouth piece connected to the respirator during inspiratory phase only (pressure switch). The Mark 7 respirator was supplied by an air/oxygen blender (Bird Sentry, Carefusion, USA) set to deliver 26% oxygen.
General medical examinations were performed by a pulmonary physician on screening and on days 8, 12 and 26 to obtain oxygenation and vital sign measurements. Abbreviated physical examination by a registered nurse was carried out each day prior to initiation of treatments on days 1-5. Oxygenation was measured with a pulse oximeter (Rad 57, Masimo Corporation, USA) which was used according to manufacturer's guidelines to measure functional oxygen saturation of arterial hemoglobin (SpO2) and heart rate. These parameters were measured continuously during every gNO administration and for 3.5 hours after the first treatment of the day. Cardiovascular status was determined by monitoring heart rate, blood pressure, respiratory rate and temperature. Values were recorded prior to the start of each gNO administration, following a 5 minute rest. During treatments, vital signs (except temperature) were also performed 15 minutes after the start of the treatment and at the end of gNO administration and recorded. After the first treatment each day, vital signs were recorded at every 30 minutes until the start of the second gNO administration of the day.

S. aureus (ATCC) = conditions: 200 ppm gNO, saline; cited from earlier work
Group B Streptococci = conditions: 200 ppm gNO, saline; cited from earlier work
S. aureus = conditions: cited from earlier work
[2] = continuous delivery of 80 ppm gNO; cited from earlier work
[3] = 160 ppm gNO 30 min, 5 times a day, 5 days, 10 healthy adults
[4] = during or after gNO administration, 160 ppm

[N]=O [gNO, nitric oxide]
minor adverse events reported [1, 3]: Three minor adverse events were reported | significant adverse events [1, 3]: no significant adverse events were observed | tolerability of treatments ([1]; 160 ppm gNO 30 min, 5 times a day, 5 days, 10 healthy adults, 250 administrations): All treatments were well tolerated | lowest observed SpO2 ([1]; 160 ppm gNO intermittent inhalation): 93% | SpO2 levels over time, pretreatment vs post treatment ([1]; 160 ppm gNO, not significant statistically nor clinically): decreased slightly | vital signs ([1]; during and after gNO administration, 160 ppm): all vital signs remained within normal limits | blood pressure [1, 4]: no drop in blood pressure | incidences of hypoxemia (less than 85% SpO2) [1, 4]: No sudden incidences of hypoxemia | LD100 (S. aureus (ATCC)): 4 h | Latent Period (S. aureus (ATCC)): 3 h | −2.5 Log10 (S. aureus (ATCC)): 3.3 hours | LD100 (Group B Streptococci): 2 h | Latent Period (Group B Streptococci): 1 h | −2.5 Log10 (Group B Streptococci): 1.5 hours | survival (downward bactericidal trend towards) (S. aureus; 50-160 ppm gNO, solid media, vs medical air): 5-10% | reduction of colony formation (S. aureus; gNO greater than 120 ppm, agar plates): greater than 90% | time required to achieve the >90% reduction of colony formation (S. aureus; gNO greater than 120 ppm): 8 to 12 h | NO2 level [2]: 2.6 ppm | increase of SpMet levels [2]: at least 5% | subjects exceeding 7% SpMet [2]: 35%
